Assay results reported in patent publication US6689609B1, “Enhancing germination of plant somatic embryos by priming” (Cellfor Inc., priority 1999, dated 2004).
Like-named read-outs stand apart in the source and are kept apart here.

Legend:
[1] = system: interior spruce somatic embryos; format: in vivo, Picea glauca (Moench) Voss x P. engelmannii Parry ex Engelm.
From the text: The second study assessed the effects adding various osmotica to nutripriming solutions on subsequent germination and development performance. Mature somatic embryos of interior spruce (Picea glauca (Moench) Voss x P. engelmannii Parry ex Engelm.) genotype 23-2672 were desiccated with the HRHT treatment, and then divided into 10 groups of 160 somatic embryos per group. One group was not primed and served as the HRHT control treatment for this study. […] The nutripriming solutions and embryos were placed into 250-ml Kimax® baffled flasks. The nutripriming duration was 72 hrs at temperatures ranging between 20-23° C., and a 24-hr photoperiod of 30 μmol m^−2s^−1 photosynthetic photon flux.
At the completion of the nutripriming step, the nutriprimed embryos from each treatment were divided into 8 groups of 20 embryos and sown by hand onto vermiculite media in Sigma polycarbonate boxes. The liquid media in these germination boxes were either 3% w/v sucrose m24GMD or m24GMD without sucrose. The experiment design was a random complete block design for each media type. Each nutripriming treatment had 4 replicates of 20 embryos in each germination media type. The germination boxes were placed in a germination room and grown for two weeks under 50-70 μmol m^−2s^−1 photosynthetic photon flux of 16-hour photoperiod at an air temperature of 23° C. The germinants were then harvested and assessed for germination rates, hyperhydricity rates, shoot and root length. Germination was defined as germinants having a root longer than 2 mm, and elongated hypercotyl. Hyperhydricity was defined by the thickening of hypercotyl and watery appearance of the germinants, whether germinated or not germinated.

[2] = system: interior spruce somatic embryos; test: Elevated sucrose levels (4-10% w/v) and extended nutripriming (3-5 days): ex vitro germination and growth of interior spruce genotypes 5-1378 and 107-2049; format: in vivo, Picea glauca (Moench) Voss x P. engelmannii Parry ex Engelm.
Procedure: Mature somatic embryos of interior spruce (Picea glauca (Moench) Voss x P. engelmannii Parry ex Engelm.) genotypes 5-1378 and 107-2049 t were desiccated with the HRHT treatment and stored at 4° C. Embryos were subsequently removed from storage and nutriprimed for one of 3, 4, or 5 days periods as previously described in ½ m24GMD liquid medium containing one of the following sucrose concentrations; 4, 6, 8, and 10% (all w/v). After the nutripriming treatments were completed, the embryos were sown ex vitro onto a peat-based polymer-bound horticultural growing substrate in 504-cell (4 ml/cell) styrofoam miniplug trays (Grow-Tech Inc., San Bautista, Calif.). The sown trays were then placed into a conventional non-sterile horticulture germination chamber in an environment-controlled growth room. The environmental conditions were 22-24° C. air temperature, 80-100% RH, 0.10-0.15% CO2, and a 16-hr photoperiod with 40-120 μmol m^−2s^−1 photosynthetic photon flux. Immediately after the trays containing ex vitro sown nutriprimed embryos were placed into the non-sterile germination chamber, they were misted with a ½ m24GMD nutrient solution amended with 3% w/v sucrose solution until the surfaces of the non-sterile growing substrates were well-wetted. Subsequently, the trays were misted with this solution daily for a 3-week germination period. Aseptic techniques or conditions were not used for application of the nutrient solutions, nor for the germination environment during the 2-week culture period. Furthermore, prophylactic applications of 0.1 g/l benlate, 0.05 g/l ampicillin plus 0.05 g/l penicillin G (or 0.1 ampicillin), and 5 ml/l Gnatrol® were applied at 5-day intervals to control fungi, bacteria, and fungus fly larvae.

[3] = germination media m24GMD (without sucrose), osmoticant levels as E220
[4] = germination media m24GMD plus 3% sucrose, osmoticant levels as E220
[5] = genotype 5-1378, 3% sucrose in nutripriming solution, 3 days priming
[6] = genotype 5-1378, 4% sucrose in nutripriming solution, 3 days priming
[7] = genotype 5-1378, 4% sucrose in nutripriming solution, 4 days priming
[8] = genotype 5-1378, 4% sucrose in nutripriming solution, 5 days priming
[9] = genotype 5-1378, 6% sucrose in nutripriming solution, 3 days priming
[10] = genotype 5-1378, 6% sucrose in nutripriming solution, 4 days priming
[11] = genotype 5-1378, 6% sucrose in nutripriming solution, 5 days priming
[12] = genotype 5-1378, 8% sucrose in nutripriming solution, 3 days priming
[13] = genotype 5-1378, 8% sucrose in nutripriming solution, 4 days priming
[14] = genotype 5-1378, 8% sucrose in nutripriming solution, 5 days priming
[15] = genotype 5-1378, 10% sucrose in nutripriming solution, 3 days priming
[16] = genotype 5-1378, 10% sucrose in nutripriming solution, 4 days priming
[17] = genotype 5-1378, 10% sucrose in nutripriming solution, 5 days priming
[18] = genotype 107-2049, 3% sucrose in nutripriming solution, 3 days priming
[19] = genotype 107-2049, 4% sucrose in nutripriming solution, 3 days priming
[20] = genotype 107-2049, 4% sucrose in nutripriming solution, 4 days priming
[21] = genotype 107-2049, 4% sucrose in nutripriming solution, 5 days priming
[22] = genotype 107-2049, 6% sucrose in nutripriming solution, 3 days priming
[23] = genotype 107-2049, 6% sucrose in nutripriming solution, 4 days priming
[24] = genotype 107-2049, 6% sucrose in nutripriming solution, 5 days priming
[25] = genotype 107-2049, 8% sucrose in nutripriming solution, 3 days priming
[26] = genotype 107-2049, 8% sucrose in nutripriming solution, 4 days priming
[27] = genotype 107-2049, 8% sucrose in nutripriming solution, 5 days priming
[28] = genotype 107-2049, 10% sucrose in nutripriming solution, 3 days priming
[29] = genotype 107-2049, 10% sucrose in nutripriming solution, 4 days priming
[30] = genotype 107-2049, 10% sucrose in nutripriming solution, 5 days priming

OC[C@H]1O[C@@](CO)(O[C@H]2O[C@H](CO)[C@@H](O)[C@H](O)[C@H]2O)[C@@H](O)[C@@H]1O [sucrose]
Germination % [1, 3]: 91.7 ± 8.3% | Root length [1, 3]: 2.4 ± 0.1 mm | Shoot length [1, 3]: 14.7 ± 0.3 mm | Germination % ([1]; germination media m24GMD plus 3% sucrose, osmoticant in m24GMD priming solution (w/v): 1% betaine, 1.65% fructose, glucose, mannitol, sorbitol, 3% lactose, maltose, sucrose, 10% PEG 4000, 72 hrs): 100% | Root length [1, 4]: 11.6 ± 0.9 mm | Shoot length [1, 4]: 18.1 ± 0.4 mm | % with hyperhydricity ([1]; in vivo): 40.0 ± 23.2% | Germination % [2, 5]: 83.3 ± 8.8% | Rooting % [2, 5]: 73.3 ± 8.8% | Germination % [2, 6]: 98.3 ± 1.7% | Rooting % [2, 6]: 86.7 ± 7.3% | Germination % [2, 7]: 96.7 ± 3.3% | Rooting % [2, 7]: 91.7 ± 4.4% | Germination % [2, 8]: 96.5 ± 1.8% | Rooting % [2, 8]: 91.5 ± 6.0% | Germination % [2, 9]: 91.7 ± 4.4% | Rooting % [2, 9]: 86.7 ± 3.3% | Germination % [2, 10]: 96.7 ± 3.3% | Rooting % [2, 10]: 90.0 ± 2.9% | Germination % [2, 11]: 98.3 ± 1.7% | Rooting % [2, 11]: 88.3 ± 4.4% | Germination % [2, 12]: 91.7 ± 4.4% | Rooting % [2, 12]: 66.7 ± 12.0% | Germination % [2, 13]: 100% | Rooting % [2, 13]: 91.7 ± 3.3% | Germination % [2, 14]: 95.0 ± 5.0% | Rooting % [2, 14]: 86.7 ± 8.3% | Germination % [2, 15]: 84.7 ± 2.9% | Rooting % [2, 15]: 52.5 ± 7.2% | Germination % [2, 16]: 100% | Rooting % [2, 16]: 88.3 ± 6.0% | Germination % [2, 17]: 98.3 ± 1.7% | Rooting % [2, 17]: 91.7 ± 4.4% | Germination % [2, 18]: 91.7 ± 4.4% | Rooting % [2, 18]: 68.3 ± 6.0% | Germination % [2, 19]: 90.0 ± 5.0% | Rooting % [2, 19]: 71.7 ± 8.8% | Germination % [2, 20]: 84.6 ± 6.2% | Rooting % [2, 20]: 62.3 ± 13.0% | Germination % [2, 21]: 93.3 ± 6.7% | Rooting % [2, 21]: 76.2 ± 4.5% | Germination % [2, 22]: 81.7 ± 3.3% | Rooting % [2, 22]: 66.7 ± 3.3% | Germination % [2, 23]: 85.8 ± 2.2% | Rooting % [2, 23]: 69.6 ± 6.1% | Germination % [2, 24]: 86.7 ± 3.3% | Rooting % [2, 24]: 70.0 ± 0.0% | Germination % [2, 25]: 76.7 ± 4.4% | Rooting % [2, 25]: 51.7 ± 4.4% | Germination % [2, 26]: 93.3 ± 4.4% | Rooting % [2, 26]: 88.3 ± 4.4% | Germination % [2, 27]: 93.3 ± 4.4% | Rooting % [2, 27]: 60.0 ± 0.0% | Germination % [2, 28]: 81.7 ± 6.7% | Rooting % [2, 28]: 36.7 ± 10.1% | Germination % [2, 29]: 90.0 ± 7.6% | Rooting % [2, 29]: 76.7 ± 8.3% | Germination % [2, 30]: 86.7 ± 1.7% | Rooting % [2, 30]: 51.7 ± 12.0%
